Measurements taken from publication PMC11489133, “Obicetrapib exhibits favorable physiochemical and pharmacokinetic properties compared to previous cholesteryl ester transfer protein inhibitors: An integrated summary of results from non‐human primate studies and clinical trials” (Pharmacology Research & Perspectives, 2024).
Read-outs that look alike come from different tables or passages of the source. Marks after values point to notes of the source that are not given here.

Assays:
[1] = disposition of 14C-obicetrapib after a single oral dose of 20 mg/kg in the cynomolgus monkey; type: in vivo; details: urine and feces samples
Method: Figure 1 illustrates the metabolism of obicetrapib (TA‐8995) in the cynomolgus monkey. A study was conducted to examine the disposition of ^14C‐obicetrapib following oral administration in the cynomolgus monkey (n = 3 males) at a dose level of 20 mg/kg. […] The monkeys each received a single oral dose of ^14C‐obicetrapib by gavage at a target dose level of 20 mg/kg and a nominal dose volume of 5 mL/kg. […] After the final blood collection, radioactivity was measured in the blood and plasma by liquid scintillation counting. The profile of M1 in selected samples of plasma was determined by high‐performance liquid chromatography (HPLC) (following extraction of the matrix, where relevant) and selected M1 were identified by liquid chromatography mass spectrometry. In plasma, unchanged obicetrapib and a M1 were the principal radioactive components and represented at least 66% of the chromatographic radioactivity in any single profile.

[2] = TA‐8995‐203 Phase II trial in Japanese participants, plasma concentrations of obicetrapib; type: in vivo, humans; details: for Mean (SD) Plasma Level / concentration at 8 weeks: Week 8 (EOT), Japanese participants; for % Change in Plasma Level: Week 8 to Week 12, mean (SD); for concentration at 8 weeks / concentration at 12 weeks: both sexes, human, plasma, oral, read-out: Mean (SD) Plasma Level; for concentration at 12 weeks: Week 12, four weeks after the end of treatment
Method: The PK parameters and the effect of food on the bioavailability of obicetrapib in humans have been examined in both Phase I[9] (TA‐8995‐09 CSR, NewAmsterdam Pharma) and Phase II trials.[10], [11], [12], [13] The trials were performed in accordance with the Declaration of Helsinki, Good Clinical Practice Guidelines, and applicable regulatory requirements. Approval was obtained from the relevant ethical review boards for each site. All volunteers provided written informed consent prior to participation. PK parameters were determined using WinNonlin software, version 4.1 or higher (Pharsight/Certara Corporation, USA). Concentrations of obicetrapib were summarized for each treatment group using descriptive statistics.
This Phase II trial (NCT05421078) was designed to evaluate the efficacy, safety, and tolerability of obicetrapib as an adjunct to stable statin therapy in Japanese participants with LDL‐C >70 mg/dL, or non‐HDL‐C >100 mg/dL, and triglyceride levels <400 mg/dL.[13] Eligible participants were receiving either atorvastatin 10 or 20 mg or rosuvastatin 5 or 10 mg for at least 8 weeks prior to screening and continued statin therapy throughout the treatment period. One hundred two participants (mean age: 64.8 years; 71.6% male; mean BMI: 25.6 kg/m^2) were enrolled at nine clinical research sites in Japan and randomized to one of four treatment groups in a 1:1:1:1 ratio: 1) placebo; 2) 2.5 mg obicetrapib; 3) 5 mg obicetrapib; or 4) 10 mg obicetrapib.
The participants were instructed to take their assigned treatment orally once daily at approximately the same time each morning for the 8‐week treatment period. After randomization, participants returned to the clinical research site during Weeks 2, 4, and 8 (end of treatment) for PK assessments. Participants also completed a follow‐up visit 4 weeks after the end of treatment (Week 12) for a final PK assessment. All of the participants who were randomized completed the treatment and were included in the primary analysis. The PK population included all randomized participants in the mITT population assigned to the three obicetrapib dose groups who had sufficient blood samples collected for valid estimation of PK parameters; 76 (100%) participants in the PK population were included in the 4‐week post‐end of treatment PK analysis (TA‐8995‐203 CSR, NewAmsterdam Pharma).

[3] = design: method as in PMID 24628035; details: cited from earlier work; for t ½ (terminal half‐life) / AUC (0–24 h) / C max / t max: fasting; for t ½ (terminal half‐life): arithmetic mean (CV%); for AUC (0–24 h) / C max: geometric mean (CV%); for C max: healthy White males
[4] = design: method as in PMID 24628035; details: cited from earlier work; for t ½ (terminal half‐life): arithmetic mean (CV%)
[5] = pH 7.4; cited from earlier work
[6] = Obicetrapib 2.5 mg + stable statin therapy
[7] = Obicetrapib 5 mg + stable statin therapy
[8] = Obicetrapib 10 mg + stable statin therapy
[9] = single dose 5 mg, after a standard breakfast, geometric mean (CV%)
[10] = single dose 10 mg, after a standard breakfast, geometric mean (CV%)

In the case of `CCOC(=O)N1c2ccc(C(F)(F)F)cc2C(N(Cc2cc(C(F)(F)F)cc(C(F)(F)F)c2)c2ncc(OCCCC(=O)O)cn2)CC1CC` (centres unmarked) [Obicetrapib], the metabolism of obicetrapib [1] is reported as “extensive”, the “Mean (SD) Plasma Level” value [2, 6] is reported as 194.5 (42.7) ng/mL and the “% Change in Plasma Level” value [2, 6] is reported as −93.4 (2.6) %. For the same compound, the “% Change in Plasma Level” value ([2]; Obicetrapib 2.5 mg + stable statin therapy, listed as obicetrapib) was −93.4%, the “% Change in Plasma Level” value [2, 7] was −93.5 (3.4) % and the “% Change in Plasma Level” value ([2]; Obicetrapib 5 mg + stable statin therapy, listed as obicetrapib) was −93.5%. For the same compound, the “Mean (SD) Plasma Level” value [2, 8] was 506.3 (237.5) ng/mL, the “% Change in Plasma Level” value [2, 8] was −95.2 (2.3) % and the “% Change in Plasma Level” value ([2]; Obicetrapib 10 mg + stable statin therapy, listed as obicetrapib) was −95.2%. The concentration at 8 weeks ([2]; 2.5 mg, Obicetrapib 2.5 mg + stable statin therapy) was 194 ng/mL, the concentration at 8 weeks ([2]; 10 mg, Obicetrapib 10 mg + stable statin therapy) was 506 ng/mL and the concentration at 12 weeks [2, 6] was 13.2 ng/mL. It also gave a concentration at 8 weeks [2, 7] of 362 ng/mL, a concentration at 12 weeks [2, 7] of 24.6 ng/mL and a concentration at 12 weeks [2, 8] of 27.6 ng/mL. The “effect of food on the AUC or C max” value ([3]; 50 mg dose, fed versus fasted, n = 5 White healthy males) was “did not have a clinically relevant effect”, the “effects of food, age, gender, or ethnicity on the PK parameters” value ([3]; PK assessment results of the other groups) was “no clinically relevant effects” and the “t ½ (terminal half‐life)” value ([3]; single dose 5 mg) was 125 (22%) h. For the same compound, the “AUC (0–24 h)” value ([3]; single dose 5 mg) was 1816 (34%) ng·h/mL, the C max ([3]; single dose 5 mg) was 138 (33%) ng/mL and the t max ([3]; single dose 5 mg, median (minimum, maximum)) was 3 (2, 3) h. For the same compound, the t max ([3]; single dose 5 mg, median (minimum, maximum), listed as obicetrapib) was no more than 3 h, the “t ½ (terminal half‐life)” value ([3]; single dose 10 mg) was 124 (20%) h and the “AUC (0–24 h)” value ([3]; single dose 10 mg) was 3580 (21%) ng·h/mL. For the same compound, the C max ([3]; single dose 10 mg) was 251 (23%) ng/mL, the t max ([3]; single dose 10 mg, median (minimum, maximum)) was 3 (2, 5) h and the t max ([3]; single dose 10 mg, median (minimum, maximum), listed as obicetrapib) was no more than 3 h. For the same compound, the “t ½ (terminal half‐life)” value ([3]; single dose 25 mg) was 162 (19%) h, the “AUC (0–24 h)” value ([3]; single dose 25 mg) was 5952 (26%) ng·h/mL and the C max ([3]; single dose 25 mg) was 467 (30%) ng/mL. For the same compound, the t max ([3]; single dose 25 mg, median (minimum, maximum)) was 3.5 (2, 6) h, the t max ([3]; single doses 50–150 mg) was 4 h and the obicetrapib in urine ([3]; single doses, any participant) was “not detected”. For the same compound, the “t ½ (terminal half‐life)” value ([4]; multiple daily doses 5 mg, after the last dose) was 148 (30%) h, the t max ([4]; multiple daily doses 5 mg, after the last dose, median (minimum, maximum)) was 4 (3, 8) h and the C max ([4]; multiple daily doses 5 mg, steady state, after the last dose, geometric mean (CV%)) was 436 (18%) ng/mL. The “AUC (0, τ, ss)” value ([4]; multiple daily doses 5 mg, steady state, τ 24 h, geometric mean (CV%)) was 7606 (20%) ^f ng·h/mL, the “Rac (accumulation ratio, AUC(0,τ,ss)/AUC(0–24 h))” value ([4]; multiple daily doses 5 mg) was 4.3 (1.1) and the “Rac (accumulation ratio, AUC(0,τ,ss)/AUC(0–24 h))” value ([4]; multiple daily doses 5 mg, listed as obicetrapib) was 4.3. The “t ½ (terminal half‐life)” value ([4]; multiple daily doses 10 mg, after the last dose) was 131 (19%) h, the t max ([4]; multiple daily doses 10 mg, after the last dose, median (minimum, maximum)) was 6 (4, 8) h and the C max ([4]; multiple daily doses 10 mg, steady state, after the last dose, geometric mean (CV%)) was 692 (23%) ng/mL. The “Rac (accumulation ratio, AUC(0,τ,ss)/AUC(0–24 h))” value ([4]; multiple daily doses 10 mg) was 3.7 (0.8), the “Rac (accumulation ratio, AUC(0,τ,ss)/AUC(0–24 h))” value ([4]; multiple daily doses 10 mg, listed as obicetrapib) was 3.7 and the “t ½ (terminal half‐life)” value ([4]; multiple daily doses 25 mg, after the last dose) was 121 (23%) h. The t max ([4]; multiple daily doses 25 mg, after the last dose, median (minimum, maximum)) was 4 (2, 6) h, the C max ([4]; multiple daily doses 25 mg, steady state, after the last dose, geometric mean (CV%)) was 1398 (18%) ng/mL and the “Rac (accumulation ratio, AUC(0,τ,ss)/AUC(0–24 h))” value ([4]; multiple daily doses 25 mg) was 2.1 (0.3). For the same compound, the “Rac (accumulation ratio, AUC(0,τ,ss)/AUC(0–24 h))” value ([4]; multiple daily doses 25 mg, listed as obicetrapib) was 2.1, the t max ([4]; multiple daily doses, all doses except 10 mg) was 4 h and the obicetrapib in urine ([4]; multiple doses, any participant) was “not detected”. For the same compound, the “AUC (0–24 h)” value [4, 9] was 1796 (14%) ng·h/mL, the C max [4, 9] was 116 (13%) ng/mL and the t max ([4]; single dose 5 mg, after a standard breakfast, median (minimum, maximum)) was 6 (4, 8) h. For the same compound, the “AUC (0–24 h)” value [4, 10] was 3471 (18%) ng·h/mL, the C max [4, 10] was 245 (14%) ng/mL and the t max ([4]; single dose 10 mg, after a standard breakfast, median (minimum, maximum)) was 6 (4, 8) h. For the same compound, the C max ([4]; single dose 25 mg, after a standard breakfast, geometric mean (CV%)) was 750 (19%) ng/mL, the t max ([4]; single dose 25 mg, after a standard breakfast, median (minimum, maximum)) was 6 (3, 8) h and the t max ([4]; single dose regardless of the strength of the dose (1–25 mg)) was 6 h. For the same compound, the “time in which plasma levels were approaching steady state” value ([4]; visual inspection of trough concentrations, multiple once daily doses) was “within one to two weeks” and the cLogDpH7.4 [5] was 4.9.
